Assay results published in patent US10899738B2 (THE REGENTS OF THE UNIVERSITY OF MICHIGAN, priority 2016, dated 2021).

The compounds below were run against menin protein (Homo sapiens (Human), UniProt O00255) (assay: biochemical). Details: FP competitive binding; menin protein 4 nM, FAM-MM2 probe 2 nM.
Assay type: binding
Protocol: A fluorescence polarization (FP) competitive binding assay was used to determine the binding affinities of representative menin inhibitors. A FAM labeled fluorescent probe was designed and synthesized based on a MLL1 peptide (FAM-MM2). Equilibrium dissociation constant (Kd) value of FAM-MM2 to menin protein was determined from protein saturation experiments by monitoring the total fluorescence polarization of mixtures composed with the fluorescent probe at a fixed concentration and the protein with increasing concentrations up to full saturation. Serial dilutions of the protein were mixed with FAM-MM2 to a final volume of 200 μl in the assay buffer (PBS with 0.02% Bovine γ-Globulin and 4% DMSO. 0.01% Triton X-100 was added right before assays). Final FAM-MM2 concentration was 2 nM. Plates were incubated at room temperature for 30 minutes with gentle shaking to assure equilibrium.
The IC50, see Table 3, and Ki values of representative Compounds of the Disclosure were determined in a competitive binding experiment. Mixtures of 5 μl of the tested compounds in DMSO and 195 μl of preincubated protein/probe complex solution in the assay buffer were added into assay plates which were incubated at room temperature for 30 minutes with gentle shaking. Final concentration of the menin protein was 4 nM, and final probe concentration is 2 nM. […] FP values were measured as described above. IC50 values were determined by nonlinear regression fitting of the competition curves.

Chain of menin protein (O00255 whole entry): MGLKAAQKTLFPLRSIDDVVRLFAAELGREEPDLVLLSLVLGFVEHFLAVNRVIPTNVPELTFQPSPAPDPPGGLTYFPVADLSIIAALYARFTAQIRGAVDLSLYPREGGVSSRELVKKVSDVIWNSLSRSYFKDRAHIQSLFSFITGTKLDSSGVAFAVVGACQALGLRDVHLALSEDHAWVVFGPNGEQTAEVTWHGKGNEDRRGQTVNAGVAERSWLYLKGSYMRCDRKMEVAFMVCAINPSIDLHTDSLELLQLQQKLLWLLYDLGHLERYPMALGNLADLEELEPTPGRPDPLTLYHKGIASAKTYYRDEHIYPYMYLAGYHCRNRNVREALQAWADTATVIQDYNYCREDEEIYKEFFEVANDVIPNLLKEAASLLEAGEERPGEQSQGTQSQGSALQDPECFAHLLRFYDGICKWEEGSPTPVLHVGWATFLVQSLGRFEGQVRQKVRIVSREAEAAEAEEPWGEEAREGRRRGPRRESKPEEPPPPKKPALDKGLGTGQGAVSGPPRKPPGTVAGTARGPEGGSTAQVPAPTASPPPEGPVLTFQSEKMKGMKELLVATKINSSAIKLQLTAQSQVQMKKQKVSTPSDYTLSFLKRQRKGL

Menin Binding Affinity IC50 (μM)	SMILES
No inhibition	c1ccc2c(c1)CCNC2(c1ccncc1)C1CCCC1 (stereo not drawn) [compound 78, 1-cyclopentyl-1-(pyridin-4-yl)-1,2,3,4-tetrahydroisoquinoline]
No inhibition	CCN1Cc2ccccc2C(C2CCCC2)(C2CCN(Cc3ccccc3Oc3ccc(C#N)cc3)CC2)C1 (stereo not drawn) [compound 163, 4-(2-((4-(4-cyclopentyl-2-ethyl-1,2,3,4-tetrahydroisoquinolin-4-yl)piperidin-1-yl)methyl)phenoxy)benzonitrile]
No inhibition	N#Cc1ccc(OCCCNc2ncc(C(O)(c3ccccc3)C3CCCC3)cn2)cc1 (stereo not drawn) [compound 124, 4-(3-((5-(cyclopentyl(hydroxy)(phenyl)methyl)pyrimidin-2-yl)amino)propoxy)benzonitrile]

Same assay, conditions: FP competitive binding; menin protein 4 nM, FAM-MM2 probe 2 nM; read-out: Menin Binding Affinity IC50

SMILES	IC50 [µM]
CN(C)S(=O)(=O)c1ccc(N2CC(CN3CCC(C4(C5CCCC5)NCCc5ccccc54)CC3)C2)cc1 (stereo not drawn) [compound 88, 4-(3-((4-(1-cyclopentyl-1,2,3,4-tetrahydroisoquinolin-1-yl)piperidin-1-yl)methyl)azetidin-1-yl)-N,N-dimethylbenzenesulfonamide]	0.075
N#Cc1cc2ccc(C(=O)N[C@H]3CC[C@H](C4(C5CCCC5)NCCc5ccccc54)CC3)cc2[nH]1 (stereo partly drawn) [compound 81, 2-cyano-N-((1r,4r)-4-(1-cyclopentyl-1,2,3,4-tetrahydroisoquinolin-1-yl)cyclohexyl)-1H-indole-6-carboxamide]	1.9
CO[C@H]1CCC[C@@H]1C1(C2CCN(CCCOc3ccc(C(=O)O)cc3)CC2)CNCc2ccccc21 (mixture of isomers) [compound 328, rac-4-(3-(4-(4-((1R,2S)-2-methoxycyclopentyl)-1,2,3,4-tetrahydroisoquinolin-4-yl)piperidin-1-yl)propoxy)benzoic acid]	119
CCN1Cc2ccccc2C(C2CCCC2)(C2CCN(CC3(C)CN(c4ccc(S(=O)(=O)c5ccncc5)cc4)C3)CC2)C1 (stereo not drawn) [compound 161, 4-cyclopentyl-2-ethyl-4-(1-((3-methyl-1-(4-(pyridin-4-ylsulfonyl)phenyl)azetidin-3-yl)methyl)piperidin-4-yl)-1,2,3,4-tetrahydroisoquinoline]	0.021
N#Cc1ccc2[nH]c(CCN3CCC(C4(C5CCCC5)NCCc5ccccc54)CC3)cc2c1 (stereo not drawn) [compound 67, 2-(2-(4-(1-cyclopentyl-1,2,3,4-tetrahydroisoquinolin-1-yl)piperidin-1-yl)ethyl)-1H-indole-5-carbonitrile]	1.2
N#Cc1cc2cc(C(=O)N[C@H]3CC[C@H](C4(C5CCCC5)NCCc5ccccc54)CC3)ccc2[nH]1 (stereo partly drawn) [compound 80, 2-cyano-N-((1r,4r)-4-(1-cyclopentyl-1,2,3,4-tetrahydroisoquinolin-1-yl)cyclohexyl)-1H-indole-5-carboxamide]	11.6
N#Cc1ccc(-c2ccc(N3CCC(C4(C5CCCC5)NCCc5ccccc54)CC3)cc2)cc1 (stereo not drawn) [compound 77, 4′-(4-(1-cyclopentyl-1,2,3,4-tetrahydroisoquinolin-1-yl)piperidin-1-yl)-[1,1′-biphenyl]-4-carbonitrile]	2580
CNC(=O)O[C@@H]1CCC[C@H]1C(C#N)(c1ccccc1)C1CCN(CC2CN(c3ccc(S(=O)(=O)c4ccncc4)cc3)C2)CC1 (mixture of isomers) [compound 216, rac-(1R,2S)-2-(cyano(phenyl)(1-((1-(4-(pyridin-4-ylsulfonyl)phenyl)azetidin-3-yl)methyl)piperidin-4-yl)methyl)cyclopentyl methylcarbamate]	0.396
CN1CCc2ccccc2C1(C1CCCC1)C1CN(CCCCCOc2ccc(C#N)cc2)C1 (stereo not drawn) [compound 63, 4-((5-(3-(1-cyclopentyl-2-methyl-1,2,3,4-tetrahydroisoquinolin-1-yl)azetidin-1-yl)pentyl)oxy)benzonitrile]	6
N#Cc1ccc(OCCCN2CCC(C3(c4ccccc4)NCCc4ccccc43)CC2)cc1 (stereo not drawn) [compound 246, 4-(3-(4-(1-phenyl-1,2,3,4-tetrahydroisoquinolin-1-yl)piperidin-1-yl)propoxy)benzonitrile]	35.6
Cn1cc(S(=O)(=O)c2ccc(N3CC(CN4CCC(C(CN5CCCC5)(C5=CCCC5)c5ccccc5)CC4)C3)cc2)cn1 (stereo not drawn) [compound 357, 4-(1-(cyclopent-1-en-1-yl)-1-phenyl-2-(pyrrolidin-1-yl)ethyl)-1-((1-(4-((1-methyl-1H-pyrazol-4-yl)sulfonyl)phenyl)azetidin-3-yl)methyl)piperidine]	0.032
N#CC(c1ccccc1)(C1CCN(CC2CN(c3ccc(S(=O)(=O)c4ccncc4)cc3)C2)CC1)[C@@H]1CCC[C@H]1OC(N)=O (mixture of isomers) [compound 212, rac-(1R,2S)-2-(cyano(phenyl)(1-((1-(4-(pyridin-4-ylsulfonyl)phenyl)azetidin-3-yl)methyl)piperidin-4-yl)methyl)cyclopentyl carbamate]	0.454
N#Cc1ccc(OCCCN2CCC(C(C#N)(Cc3ccncc3)c3ccccc3)CC2)cc1 (stereo not drawn) [compound 344, 4-(3-(4-(1-cyano-1-phenyl-2-(pyridin-4-yl)ethyl)piperidin-1-yl)propoxy)benzonitrile]	180
O=S(=O)(c1ccc(N2CC(F)(CN3CCC(C4(C5CCCC5)NCCc5ccccc54)CC3)C2)cc1)C1CC1 (stereo not drawn) [compound 140, 1-cyclopentyl-1-(1-((1-(4-(cyclopropylsulfonyl)phenyl)-3-fluoroazetidin-3-yl)methyl)piperidin-4-yl)-1,2,3,4-tetrahydroisoquinoline]	0.104

Further lines, results first:

IC50 [µM]	SMILES
0.331	N#CC(c1ccccc1)(C1CCN(CC2CN(c3ccc(S(=O)(=O)c4ccccc4)cc3)C2)CC1)[C@@H]1CCC[C@H]1OC(N)=O (mixture of isomers) [compound 224, rac-(1R,2S)-2-(cyano(phenyl)(1-((1-(4-(phenylsulfonyl)phenyl)azetidin-3-yl)methyl)piperidin-4-yl)methyl)cyclopentyl carbamate]
0.178	CNC(=O)O[C@@H]1CCC[C@H]1C(C#N)(c1ccccc1)C1CCN(CCCOc2ccc(C#N)cc2)CC1 (mixture of isomers) [compound 233, rac-(1R,2S)-2-(cyano(1-(3-(4-cyanophenoxy)propyl)piperidin-4-yl)(phenyl)methyl)cyclopentyl methylcarbamate]
0.112	CNC(=O)O[C@H]1CCC[C@@H]1C(C#N)(c1ccccc1)C1CCN(CC2CN(c3ccc(C(=O)OC)cc3)C2)CC1 (mixture of isomers) [compound 373, methyl rac-4-(3-((4-(cyano((1R,2S)-2-((methylcarbamoyl)oxy)cyclopentyl)(phenyl)methyl)piperidin-1-yl)methyl)azetidin-1-yl)benzoate]
4.5	COC[C@@H]1CCC[C@H]1C(C#N)(c1ccccc1)C1CCN(CC2CN(c3ccc(S(=O)(=O)C4CC4)cc3)C2)CC1 (mixture of isomers) [compound 266, rac-2-(1-((1-(4-(cyclopropylsulfonyl)phenyl)azetidin-3-yl)methyl)piperidin-4-yl)-2-((1R,2R)-2-(methoxymethyl)cyclopentyl)-2-phenylacetonitrile]
4.7	CS(=O)(=O)C[C@H]1CCC[C@@H]1C(C#N)(c1ccccc1)C1CCN(CC2CN(c3ccc(S(=O)(=O)c4ccncc4)cc3)C2)CC1 (mixture of isomers) [compound 255, rac-2-((1S,2S)-2-((methylsulfonyl)methyl)cyclopentyl)-2-phenyl-2-(1-((1-(4-(pyridin-4-ylsulfonyl)phenyl)azetidin-3-yl)methyl)piperidin-4-yl)acetonitrile]
4.6	CNC(=O)O[C@@H]1CCC[C@H]1C(C#N)(c1ccccc1)C1CCN(CC2CN(c3ccc([N+](=O)[O-])cc3)C2)CC1 (mixture of isomers) [compound 384, rac-(1R,2S)-2-(cyano(1-((1-(4-nitrophenyl)azetidin-3-yl)methyl)piperidin-4-yl)(phenyl)methyl)cyclopentyl methylcarbamate]
923	CC(=O)O[C@@H]1CCC[C@H]1C(C#N)(c1cccc(C(F)(F)F)c1)C1CCN(CC2CN(c3ccc(C#N)cc3)C2)CC1 (mixture of isomers) [compound 418, rac-(1R,2S)-2-(cyano(1-((1-(4-cyanophenyl)azetidin-3-yl)methyl)piperidin-4-yl)(3-(trifluoromethyl)phenyl)methyl)cyclopentyl acetate]
485	CO[C@@H]1CCC[C@H]1C1(C2CCN(CCCOc3ccc(C(=O)O)cc3)CC2)CNCc2ccccc21 (mixture of isomers) [compound 327, rac-4-(3-(4-(4-((1S,2R)-2-methoxycyclopentyl)-1,2,3,4-tetrahydroisoquinolin-4-yl)piperidin-1-yl)propoxy)benzoic acid]
9.3	CC(=O)OC[C@H]1CCC[C@@H]1C(C#N)(c1ccccc1)C1CCN(CC2CN(c3ccc(S(=O)(=O)C4CC4)cc3)C2)CC1 (mixture of isomers) [compound 261, rac-((1S,2S)-2-(cyano(1-((1-(4-(cyclopropylsulfonyl)phenyl)azetidin-3-yl)methyl)piperidin-4-yl)(phenyl)methyl)cyclopentyl) methyl acetate]
23.2	CS(=O)(=O)CO[C@@H]1CCC[C@H]1C(C#N)(c1ccccc1)C1CCN(CC2CN(c3ccc(S(=O)(=O)c4ccncc4)cc3)C2)CC1 (mixture of isomers) [compound 254, rac-2-((1S,2R)-2-((methylsulfonyl)methoxy)cyclopentyl)-2-phenyl-2-(1-((1-(4-(pyridin-4-ylsulfonyl)phenyl)azetidin-3-yl)methyl)piperidin-4-yl)acetonitrile]
